Laboratory results from PMC5224880, “Discovery and Molecular Basis of a Diverse Set of Polycomb Repressive Complex 2 Inhibitors Recognition by EED” (PLoS ONE, 2017).

Key:
Type in all cases: biochemical
[1] = biological target: EZH2 (EZH2/EED/SUZ12/RBAP48/AEBP2) (Homo sapiens, UniProt O75530+Q15910); test: HMT panel selectivity: EZH2
Text: This assay employs liquid chromatography mass spectrometry technology using peptide or nucleosome as substrate and then detects the formation of the co-product SAH [11, 25].
(§1) Note: for EZH2, EZH2/EED/SUZ12/RBAP48/AEBP2 was used in the assay; for EZH1, EZH1/EED/SUZ12/RBAP48/AEBP2 was used in the assay; for MLL, MLL/WDR5/RBBP5/ASH2L/ was use in the assay. a, H3K27me0 peptide was used as substrate for both EZH2 and EZH1 activity; b, H3K27me1 peptide was used as substrate for both EZH2 and EZH1 activity.

[2] = biological target: EZH1 (EZH1/EED/SUZ12/RBAP48/AEBP2) (Homo sapiens, UniProt O75530+Q92800); test: HMT panel selectivity: EZH1
Sequence of EZH1 (EZH1/EED/SUZ12/RBAP48/AEBP2) (Q92800 whole entry): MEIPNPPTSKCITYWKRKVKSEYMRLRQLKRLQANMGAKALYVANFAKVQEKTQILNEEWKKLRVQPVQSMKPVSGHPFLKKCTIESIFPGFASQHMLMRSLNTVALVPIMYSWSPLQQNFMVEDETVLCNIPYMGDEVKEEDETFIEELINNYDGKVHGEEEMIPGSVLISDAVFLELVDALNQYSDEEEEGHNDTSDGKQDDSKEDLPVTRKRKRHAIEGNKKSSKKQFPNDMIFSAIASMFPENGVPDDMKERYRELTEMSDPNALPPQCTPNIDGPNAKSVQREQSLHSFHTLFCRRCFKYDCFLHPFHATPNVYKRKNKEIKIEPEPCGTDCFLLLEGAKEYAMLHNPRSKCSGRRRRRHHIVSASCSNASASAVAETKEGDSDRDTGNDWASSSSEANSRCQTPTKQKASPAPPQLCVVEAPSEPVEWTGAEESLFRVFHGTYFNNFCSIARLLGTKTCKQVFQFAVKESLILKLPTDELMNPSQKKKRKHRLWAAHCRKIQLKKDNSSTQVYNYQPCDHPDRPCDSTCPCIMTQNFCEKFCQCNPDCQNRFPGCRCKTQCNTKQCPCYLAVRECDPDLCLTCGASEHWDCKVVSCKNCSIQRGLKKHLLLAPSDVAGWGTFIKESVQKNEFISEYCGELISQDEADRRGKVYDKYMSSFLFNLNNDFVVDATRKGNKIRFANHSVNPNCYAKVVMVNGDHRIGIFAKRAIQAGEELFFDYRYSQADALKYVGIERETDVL
Sequence of EZH1 (EZH1/EED/SUZ12/RBAP48/AEBP2) (O75530 whole entry): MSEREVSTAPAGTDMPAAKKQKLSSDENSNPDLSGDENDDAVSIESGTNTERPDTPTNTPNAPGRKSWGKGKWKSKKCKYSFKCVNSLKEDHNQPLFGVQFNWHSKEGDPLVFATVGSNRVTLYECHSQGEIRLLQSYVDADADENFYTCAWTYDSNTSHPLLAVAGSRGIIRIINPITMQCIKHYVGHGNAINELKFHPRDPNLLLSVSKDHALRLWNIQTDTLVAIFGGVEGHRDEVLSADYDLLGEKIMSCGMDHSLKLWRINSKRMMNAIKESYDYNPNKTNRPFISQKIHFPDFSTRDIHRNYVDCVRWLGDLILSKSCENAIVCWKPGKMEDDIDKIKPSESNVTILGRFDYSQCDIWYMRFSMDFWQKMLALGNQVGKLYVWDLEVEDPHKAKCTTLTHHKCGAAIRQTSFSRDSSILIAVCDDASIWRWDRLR
Sequence of EZH1 (EZH1/EED/SUZ12/RBAP48/AEBP2) (Q15022 whole entry partner): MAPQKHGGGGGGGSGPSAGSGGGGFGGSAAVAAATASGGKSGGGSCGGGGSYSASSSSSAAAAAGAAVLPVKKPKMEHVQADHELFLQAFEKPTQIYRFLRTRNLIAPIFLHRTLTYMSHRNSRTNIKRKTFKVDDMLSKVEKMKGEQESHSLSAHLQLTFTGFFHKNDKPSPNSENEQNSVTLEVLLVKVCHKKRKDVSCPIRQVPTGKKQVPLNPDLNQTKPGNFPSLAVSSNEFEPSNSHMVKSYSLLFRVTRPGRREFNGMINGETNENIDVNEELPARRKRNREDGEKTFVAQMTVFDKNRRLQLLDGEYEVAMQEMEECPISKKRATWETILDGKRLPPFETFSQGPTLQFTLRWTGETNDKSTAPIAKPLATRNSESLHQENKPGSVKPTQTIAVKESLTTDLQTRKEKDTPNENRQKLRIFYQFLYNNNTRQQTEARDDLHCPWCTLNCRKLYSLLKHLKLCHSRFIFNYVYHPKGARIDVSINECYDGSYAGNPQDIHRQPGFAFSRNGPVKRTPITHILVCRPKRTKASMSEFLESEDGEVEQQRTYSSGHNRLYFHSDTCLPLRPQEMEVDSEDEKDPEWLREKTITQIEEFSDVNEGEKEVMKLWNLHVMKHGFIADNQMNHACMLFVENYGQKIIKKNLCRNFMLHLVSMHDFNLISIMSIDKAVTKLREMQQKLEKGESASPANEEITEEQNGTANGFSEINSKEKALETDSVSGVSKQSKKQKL
Sequence of EZH1 (EZH1/EED/SUZ12/RBAP48/AEBP2) (Q09028 whole entry partner): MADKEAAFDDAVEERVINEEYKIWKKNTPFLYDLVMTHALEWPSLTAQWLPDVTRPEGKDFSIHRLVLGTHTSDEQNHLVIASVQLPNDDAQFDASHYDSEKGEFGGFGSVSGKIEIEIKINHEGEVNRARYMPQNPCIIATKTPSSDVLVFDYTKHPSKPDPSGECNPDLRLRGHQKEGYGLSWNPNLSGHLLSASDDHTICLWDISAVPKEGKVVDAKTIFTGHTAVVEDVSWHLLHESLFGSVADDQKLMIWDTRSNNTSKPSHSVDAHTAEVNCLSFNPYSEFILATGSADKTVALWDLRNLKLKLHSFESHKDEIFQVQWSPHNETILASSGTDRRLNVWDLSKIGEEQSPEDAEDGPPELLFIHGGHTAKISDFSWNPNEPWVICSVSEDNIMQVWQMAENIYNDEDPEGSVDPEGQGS
Sequence of EZH1 (EZH1/EED/SUZ12/RBAP48/AEBP2) (Q6ZN18 whole entry partner): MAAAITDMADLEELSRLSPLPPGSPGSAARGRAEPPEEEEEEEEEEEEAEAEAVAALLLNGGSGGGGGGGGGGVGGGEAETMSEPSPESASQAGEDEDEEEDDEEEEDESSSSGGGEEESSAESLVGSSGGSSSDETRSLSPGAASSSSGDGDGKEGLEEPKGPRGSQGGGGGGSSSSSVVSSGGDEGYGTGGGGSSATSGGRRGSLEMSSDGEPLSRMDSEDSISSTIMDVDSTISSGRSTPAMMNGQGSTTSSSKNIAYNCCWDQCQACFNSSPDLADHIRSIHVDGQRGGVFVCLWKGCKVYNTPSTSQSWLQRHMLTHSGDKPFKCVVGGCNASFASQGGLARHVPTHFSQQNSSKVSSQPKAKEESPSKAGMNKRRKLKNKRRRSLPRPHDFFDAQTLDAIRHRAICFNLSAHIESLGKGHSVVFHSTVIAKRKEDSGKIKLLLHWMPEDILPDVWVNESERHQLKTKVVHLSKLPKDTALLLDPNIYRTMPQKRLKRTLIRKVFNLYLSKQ
Text: as §1

[3] = biological target: MLL (MLL/WDR5/RBBP5/ASH2L) (Homo sapiens, UniProt Q03164); test: HMT panel selectivity: MLL
Method: as §1, with “activity. All HMT reactions were performed as described previously. ref: Proc Natl Acad Sci U S A. 2012 Dec 26;109(52):21360-5.” for “activity.”

SETD6 = biological target: T1, SETD6 (Homo sapiens, UniProt Q8TBK2); test: HMT panel selectivity: SETD6
T1 sequence (Q8TBK2 1-473): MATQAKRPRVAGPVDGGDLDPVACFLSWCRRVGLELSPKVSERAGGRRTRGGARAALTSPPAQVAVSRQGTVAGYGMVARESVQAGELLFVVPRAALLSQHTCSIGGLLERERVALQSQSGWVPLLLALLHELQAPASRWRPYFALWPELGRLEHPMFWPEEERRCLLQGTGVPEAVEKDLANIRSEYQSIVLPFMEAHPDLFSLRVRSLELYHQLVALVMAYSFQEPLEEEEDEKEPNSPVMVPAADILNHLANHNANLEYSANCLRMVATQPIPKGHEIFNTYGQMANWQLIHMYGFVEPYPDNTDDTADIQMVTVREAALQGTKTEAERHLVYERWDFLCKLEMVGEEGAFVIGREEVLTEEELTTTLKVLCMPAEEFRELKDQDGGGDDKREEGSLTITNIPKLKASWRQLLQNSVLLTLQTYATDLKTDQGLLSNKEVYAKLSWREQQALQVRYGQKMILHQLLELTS
Method: as §1, with “activity. All HMT reactions were performed as described previously. ref: Proc Natl Acad Sci U S A. 2012 Dec 26;109(52):21360-5.” for “activity.”

Set7/9 = biological target: T2, Set7/9 (Homo sapiens, UniProt Q8WTS6); test: HMT panel selectivity: Set7/9
T2 sequence (Q8WTS6 1-366): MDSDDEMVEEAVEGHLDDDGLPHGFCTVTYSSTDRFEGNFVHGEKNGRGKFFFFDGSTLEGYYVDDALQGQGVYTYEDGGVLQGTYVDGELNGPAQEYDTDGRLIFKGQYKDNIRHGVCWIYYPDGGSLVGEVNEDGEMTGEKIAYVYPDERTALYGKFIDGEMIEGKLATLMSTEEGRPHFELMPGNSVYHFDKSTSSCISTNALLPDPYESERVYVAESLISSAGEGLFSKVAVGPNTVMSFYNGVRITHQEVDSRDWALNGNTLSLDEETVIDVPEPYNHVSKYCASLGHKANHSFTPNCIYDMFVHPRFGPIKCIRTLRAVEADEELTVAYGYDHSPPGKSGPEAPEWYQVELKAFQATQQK
Method: as §1, with “activity. All HMT reactions were performed as described previously. ref: Proc Natl Acad Sci U S A. 2012 Dec 26;109(52):21360-5.” for “activity.”

SETD2 = SETD2 (Homo sapiens, UniProt Q9BYW2); test: HMT panel selectivity: SETD2
Method: as §1, with “activity. All HMT reactions were performed as described previously. ref: Proc Natl Acad Sci U S A. 2012 Dec 26;109(52):21360-5.” for “activity.”

Dot1L = Dot1L (Homo sapiens, UniProt Q8TEK3); test: HMT panel selectivity: Dot1L
Method: as §1, with “activity. All HMT reactions were performed as described previously. ref: Proc Natl Acad Sci U S A. 2012 Dec 26;109(52):21360-5.” for “activity.”

PRMT1 = PRMT1 (Homo sapiens, UniProt Q99873); test: HMT panel selectivity: PRMT1
Sequence of PRMT1 (Q99873 whole entry, species assumed): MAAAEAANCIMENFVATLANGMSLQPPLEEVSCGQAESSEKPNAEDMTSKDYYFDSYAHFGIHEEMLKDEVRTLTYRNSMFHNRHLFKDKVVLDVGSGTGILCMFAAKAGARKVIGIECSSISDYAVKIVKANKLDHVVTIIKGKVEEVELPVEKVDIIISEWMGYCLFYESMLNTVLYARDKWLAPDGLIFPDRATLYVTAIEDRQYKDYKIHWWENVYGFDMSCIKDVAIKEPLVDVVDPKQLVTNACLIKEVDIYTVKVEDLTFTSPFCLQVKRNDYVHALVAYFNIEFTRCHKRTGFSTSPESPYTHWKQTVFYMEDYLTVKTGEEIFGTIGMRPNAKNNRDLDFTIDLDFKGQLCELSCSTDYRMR
Method: as §1, with “activity. All HMT reactions were performed as described previously. ref: Proc Natl Acad Sci U S A. 2012 Dec 26;109(52):21360-5.” for “activity.”

PRMT3 = PRMT3 (Homo sapiens, UniProt O60678); test: HMT panel selectivity: PRMT3
Method: as §1, with “activity. All HMT reactions were performed as described previously. ref: Proc Natl Acad Sci U S A. 2012 Dec 26;109(52):21360-5.” for “activity.”

PRMT5/MEP50 = PRMT5/MEP50 (Homo sapiens, UniProt O14744); test: HMT panel selectivity: PRMT5/MEP50
Method: as §1, with “activity. All HMT reactions were performed as described previously. ref: Proc Natl Acad Sci U S A. 2012 Dec 26;109(52):21360-5.” for “activity.”

PRMT8 = PRMT8 (Homo sapiens, UniProt Q9NR22); test: HMT panel selectivity: PRMT8
Sequence of PRMT8 (Q9NR22 whole entry, species assumed): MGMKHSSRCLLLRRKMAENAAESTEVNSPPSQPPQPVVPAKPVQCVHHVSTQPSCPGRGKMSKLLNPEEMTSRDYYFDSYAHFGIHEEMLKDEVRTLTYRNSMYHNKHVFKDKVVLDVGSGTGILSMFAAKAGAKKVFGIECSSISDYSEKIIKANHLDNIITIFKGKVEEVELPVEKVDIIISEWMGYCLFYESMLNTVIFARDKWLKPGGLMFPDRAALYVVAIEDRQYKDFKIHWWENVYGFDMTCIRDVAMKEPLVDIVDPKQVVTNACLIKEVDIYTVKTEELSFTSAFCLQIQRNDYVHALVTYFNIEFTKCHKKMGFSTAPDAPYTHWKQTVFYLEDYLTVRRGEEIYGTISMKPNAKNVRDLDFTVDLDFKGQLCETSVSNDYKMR
Method: as §1, with “activity. All HMT reactions were performed as described previously. ref: Proc Natl Acad Sci U S A. 2012 Dec 26;109(52):21360-5.” for “activity.”

Measured: IC50

Sequence of EZH2 (EZH2/EED/SUZ12/RBAP48/AEBP2) (Q15910 whole entry): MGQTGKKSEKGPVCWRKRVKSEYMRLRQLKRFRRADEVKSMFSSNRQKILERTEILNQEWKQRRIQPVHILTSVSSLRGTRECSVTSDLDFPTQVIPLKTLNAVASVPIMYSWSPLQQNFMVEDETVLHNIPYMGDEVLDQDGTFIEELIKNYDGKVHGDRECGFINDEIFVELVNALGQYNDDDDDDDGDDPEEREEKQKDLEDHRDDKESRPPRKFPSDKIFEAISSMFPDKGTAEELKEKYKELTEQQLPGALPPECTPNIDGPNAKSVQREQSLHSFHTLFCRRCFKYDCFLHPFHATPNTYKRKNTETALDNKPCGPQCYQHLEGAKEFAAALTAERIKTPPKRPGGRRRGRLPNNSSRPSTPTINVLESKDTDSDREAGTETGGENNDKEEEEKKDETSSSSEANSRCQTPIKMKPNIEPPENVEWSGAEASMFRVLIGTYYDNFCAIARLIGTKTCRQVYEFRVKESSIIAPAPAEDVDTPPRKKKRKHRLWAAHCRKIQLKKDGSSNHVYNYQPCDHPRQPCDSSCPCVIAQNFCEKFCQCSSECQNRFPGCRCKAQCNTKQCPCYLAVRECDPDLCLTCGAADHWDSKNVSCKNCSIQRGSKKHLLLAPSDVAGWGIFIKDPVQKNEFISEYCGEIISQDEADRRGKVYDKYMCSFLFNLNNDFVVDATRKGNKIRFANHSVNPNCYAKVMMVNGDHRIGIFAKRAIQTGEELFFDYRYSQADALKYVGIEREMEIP
Sequence of EZH2 (EZH2/EED/SUZ12/RBAP48/AEBP2) (O75530 whole entry): as the sequence (O75530 whole entry) above
Sequence of EZH2 (EZH2/EED/SUZ12/RBAP48/AEBP2) (Q15022 whole entry partner): as the sequence (Q15022 whole entry partner) above
Sequence of EZH2 (EZH2/EED/SUZ12/RBAP48/AEBP2) (Q09028 whole entry partner): as the sequence (Q09028 whole entry partner) above
Sequence of EZH2 (EZH2/EED/SUZ12/RBAP48/AEBP2) (Q6ZN18 whole entry partner): as the sequence (Q6ZN18 whole entry partner) above

N#Cc1c2c(c3nncn3c1NCc1ccco1)CN(Cc1ccccc1)CC2 [EED162]
2.2 µM: [1]
5.1 µM: [2]
> 100 µM: all other assays above

COc1cccc(CC2CC3Cc4c(cccc4OC)CC3N(C)C2)c1 (stereo not drawn) [EED210]
not listed: [1] | [2]
> 100 µM: all other assays above

COc1cc(-c2cc3n(c(=N)c2C#N)CCc2cc4c(cc2-3)OCO4)ccc1OC(C)C [EED396]
87 µM: [1]
70 µM: [2]
> 100 µM: all other assays above

Cc1cc(C)n(-c2cc(N3CCc4ccccc4C3)ccc2[N+](=O)[O-])n1 [EED666]
99 µM: [1]
66 µM: [2]
> 100 µM: all other assays above

COc1ccccc1CN1CC(c2cn(C)c3ccccc23)C(N(C)C)C1 (stereo not drawn) [EED709]
not listed: [1] | [2]
> 100 µM: all other assays above
